This is an account of results in patent publication US20220304945A1, “METHODS OF TREATING METABOLIC SYNDROME RELATED CONDITIONS USING RETINOIC ACID RECEPTOR AGONISTS” (Cornell University, priority 2014, published 2022).

“Also recorded” adds a separate entry of the source.

Holding throughout (assay type): in vivo, mouse
For one test, the system named is c-peptide. Briefly: c-peptide/glucagon immunofluorescence of pancreatic islets, HF-fed mice. Particulars: HF diet mice 4 months; vs HF diet. The method, then: Indirect Immunofluorescence. Immunofluorescence assays on cells and tissue sections were performed as previously described (29). Briefly, differentiated samples were fixed using 4% (w/v) paraformaldehyde and membrane permeabilization (for cells only) was done with 0.3% (w/v) Triton-X 100 (Sigma). Unspecific sites were blocked using 2% BSA for 30 min prior to incubation with rabbit polyclonal anti-PDX1 (Millipore, 06-1379, 1:1000), rabbit anti-C-Peptide (Cell Signaling, 4593, 1:500, Danvers, Mass.) and mouse monoclonal anti-Glucagon (Abcam, ab10988, 1:200) primary antibodies. Phalloidin-TRITC (Millipore, FAK100, 1:1000, Billerica, Mass.) was used to stain the actin stress fiber network (F-actin). Nuclei were stained using DAPI contained in Vectashield® mounting medium for fluorescence (Vector labs, Burlingame, Calif.). Quantitation of C-peptide positive stained cells and islet surface area was performed using NIS-Elements Advanced Research software (Nikon).
Mice, diet, and drug treatment. WT male C57/BL6 male mice were maintained on either a standard laboratory chow-fed diet (CFD) with 13% kcal fat, (diet #5053, Lab Diet, Inc, St. Louis, Mo.) or a high fat, western style diet (HFD) with 60% kcals from fat, (diet #58126, Lab Diet, Inc., St. Louis, Mo.) for 4 months. […]

A short description of test [1]: HPLC analysis of serum and liver retinoids, HF-fed mice. Particulars: for liver retinyl palmitate and retinol compared to controls: HF diet mice vs control diet.
Source text: (§1) Mice, diet, and drug treatment. WT male C57/BL6 male mice were maintained on either a standard laboratory chow-fed diet (CFD) with 13% kcal fat, (diet #5053, Lab Diet, Inc, St. Louis, Mo.) or a high fat, western style diet (HFD) with 60% kcals from fat, (diet #58126, Lab Diet, Inc., St. Louis, Mo.) for 4 months. One month after the start of the high fat diet treatment, the high fat diet group was further split into 2 groups for 3 months: i) high fat diet and the drinking water containing 1% DMSO; ii) high fat diet and the drinking water containing 1.5 mg/100 ml AC261066, a specific RARβ agonist. Then mice were sacrificed by cervical dislocation. Blood and various tissue samples were harvested.
(§2) Analysis of serum and liver retinoids. The frozen liver tissue samples (˜100 mg) were homogenized in 500 μl cold phosphate-buffered saline (PBS). In addition, 100 μl serum was diluted in cold PBS to total volume of 500 μl. Retinyl acetate was added to each sample before the retinoid extraction for the calculation of extraction efficiency. The retinoids were extracted into 350 μl of organic solution (acetonitrile/butanol, 50:50, v/v) in the dark. The high performance liquid chromatography (HPLC) was performed using a Waters Millennium system (Waters). Each sample (100 μl of the 350 μl) was loaded onto an analytical 5-μm reverse phase C18 column (Vydac, Hesperia, Calif.) and eluted at a flow rate of 1.5 ml/min. Two mobile phase gradient systems were used. Retinoids were identified by HPLC based on two criteria: an exact match of the retention times of unknown peaks with those of authentic retinoid standards and identical UV light spectra (220-400 nm) of unknowns against spectra from authentic retinoid standards during HPLC by the use of a photodiode array detector. The amounts of retinoids were calculated from the areas under the peaks detected at the wave-length of 325 nm. The levels of retinol and retinyl esters were normalized to the tissue weight.
as §2, with “Millenium” for “Millennium”

In a further test the test system is HF-fed C57/BL6 mice. Briefly: Renal lipid accumulation: H and E and oil red O staining of kidney, HF-fed mice. Particulars: HF diet mice 4 months; vs HF-vehicle.
Source text: as §1
Hematoxylin and Eosin Staining. At sacrifice, fresh mouse liver samples were fixed in 4% formaldehyde solution for 24 hr and embedded in paraffin blocks. Kidney paraffin sections were cut 5 microns thick and mounted on glass slides and stained with hematoxylin and eosin (H and E) using standard protocols.
Combined oil red O and Immunofluorescence staining. Fresh mouse kidney samples were embedded in optimal cutting temperature (OCT) medium and immediately frozen to −70 centigrade. Cryosections were then fixed in 4% formaldehyde for 1 hr at room temp. Slides were then rinsed three times in deionized water (dH2O) for 30 s, followed by treatment with 0.5% Triton X-100 in PBS for 5 min. Sections were then washed three times with PBS for 5 min. Samples were with incubated 2% bovine serum albumin (BSA) for 30 min at room temperature to block for unspecific antibody binding. Following blocking, sections were washed three times in PBS and incubated with mouse monoclonal antibody against α-SMA (1:500) (Dako, Inc) for 24 h at 4° C. After 24 h sections were washed three times in PB and incubated with Alexa-Flour-488 anti-mouse secondary anti-body (1:500) (Invitrogen, Inc) for 30 min at room temperature. Sections were then washed three times in PBS and incubated with working strength oil-red O solution for 30 minutes at room temperature. […]

For the molecule `CCCCOCCOc1nc(-c2ccc(C(=O)O)c(F)c2)sc1C` [AC261066], in the test with c-peptide, the “c-peptide level in pancreatic islets” value is “slightly reduces; also recorded: slightly decreased”. Also, in test [1] (HF diet mice), the “retinyl palmitate in liver, higher than HF-vehicle treated mice” value came out at 55% and the “vitamin A deficiency (VA depletion) in liver” value is “partially reverses”. In addition, the “liver retinyl palmitate and retinol compared to controls” value in test [1] was “significantly lowered”. Moreover, in the test with HF-fed C57/BL6 mice, the “renal lipid accumulation (H and E)” value was “diminished; also recorded: markedly decreased”; the “renal lipid accumulation (oil red O)” value was “marked diminished; also recorded: comparably less”.
As to `O=C(O)c1ccc(-c2ccc3cc(O)c(C45CC6CC(CC(C6)C4)C5)cc3c2)cc1` [CD1530], the “retinyl palmitate in liver, lower than HF-vehicle treated mice” value in test [1] (HF diet mice) was about 48%. In addition, the “liver retinyl palmitate and retinol compared to controls” value in test [1] is “significantly lowered”. Moreover, in the test with HF-fed C57/BL6 mice, the “renal lipid accumulation (H and E)” value is given as “no decrease”.
